Reference: patent publication US8513303B2, “Antimicrobial agent” (De Montfort University, priority 2007, dated 2013)

Key:
[1] = system: Pseudomonas aeruginosa ATCC 15442; assay: Quantitative suspension test, log10 reduction in bacterial numbers; format: cell-based; conditions: 0.5% w/v H2O2; for log reduction: 35° C.
From the text: (§1) Neutralisation (nullification of activity) of antimicrobial agents is required to prevent inhibitory concentrations from being transferred to the recovery medium (as discussed, for example, in Russell A. D. (2004) Factors influencing the efficacy of antimicrobial agents in Principles and Practice of Disinfection Preservation and Sterilization, 4th edition, eds Fraise A. P., Lambert P. A. and Maillard J. Y., pages 98-127, Oxford: Blackwell Publishing Ltd. and Russell A. D., Ahonkhai I. and Rogers, D. T. (1979) A review: microbiological applications of the inactivation of antibiotics and other antimicrobial agents. Journal of Applied Bacteriology, 46, 207-245). Thus, samples were removed at desired time points and then any hydrogen peroxide present in the sample was neutralised (i.e. deactivated) using catalase.
(§2) In the examples, catalase from bovine liver was used to neutralise the activity of any remaining hydrogen peroxide (as described in Russell A. D., Ahonkhai I. and Rogers, D. T. (1979), A review: microbiological applications of the inactivation of antibiotics and other antimicrobial agents, Journal of Applied Bacteriology, 46, 207-245) after the appropriate contact time during the experiments. Control experiments were conducted to establish whether the neutraliser nullified the activity of hydrogen peroxide and whether the neutraliser was toxic to the micro-organisms tested.
(§3) The effect of acidic pH conditions (pH 3.47 to 3.54) were investigated with and without hydrogen peroxide and air.
(§4) A quantitative suspension test (as described in Reybrouck G. (1998), The testing of disinfectants, International Biodeterioration and Biodegradation, 41, 269-272) based on the general principles of European quantitative suspension tests (BS EN1040:2005: Chemical disinfectants and antiseptics, Quantitative suspension test for the evaluation of basic bactericidal activity of chemical disinfectants and antiseptics, Test method and requirements (phase 1), London: British Standards Institute; BS EN 1276:1997: Chemical disinfectants and antiseptics, Quantitative suspension test for the evaluation of bactericidal activity of chemical disinfectants and antiseptics used in food, industrial, domestic, and institutional areas, Test method and requirements (phase 2, step 1). London: British Standards Institute) was used to establish the basic level of activity of the catalyst in the absence of organic matter. All tests were performed independently at least three times unless otherwise stated. Low concentrations (0.2-1% w/v) of hydrogen peroxide were used so that increases in antimicrobial activity could be detected if present.
(§5) Bacteria were inoculated into 10 ml volumes of nutrient broth and incubated at 37° C. for 18 to 24 hours at a shaking speed of 100 revolutions/minute. After incubation, the bacteria were washed by centrifugation to remove the nutrient broth; supernatants were discarded and the bacterial pellets were resuspended in sterilised distilled water. 7.5 ml of the washed bacterial suspension was added to 67.5 ml of hydrogen peroxide and/or distilled water to give a specific final concentration (ranging from 0 to 1% w/v—see Tables below) of hydrogen peroxide and approximately 8 log10 colony forming units (CFU)/mL of bacteria. The resultant mixture was stirred magnetically throughout the experiment. Where applicable, 1 g (+/−0.1 g) of either modified PAN fibre (referred to as PAN1 (control) or PAN2 (control)) or catalyst (referred to as PAN1 catalyst or PAN2 catalyst or PAN3 catalyst) comprising PAN fibres was added to the resultant mixture. The experiments were performed with or without air. If air was used, 2.5 L/min was supplied via. a filtered air pump and a sterilised Pyrex gas distribution tube.
(§6) After a specific contact time (see Tables below), 1 ml aliquots were removed from the experimental flask and transferred into 9 ml of neutraliser (catalase) for 5 minutes to inactivate any remaining hydrogen peroxide.

[2] = system: Escherichia coli ATCC 10536; assay: as above; format: cell-based; conditions: 0.2% w/v H2O2
From the text: as §1, §2, §3, §4, §5, §6

[3] = air 2.5 L/min, 50 min, listed as hydrogen peroxide
[4] = no air, 60 min, listed as hydrogen peroxide
[5] = acidic pH 3.47 to 3.54, air 2.5 L/min, 10 min
[6] = acidic pH 3.47 to 3.54, air 2.5 L/min, 20 min
[7] = acidic pH 3.47 to 3.54, air 2.5 L/min, 30 min
[8] = acidic pH 3.47 to 3.54, air 2.5 L/min, 40 min
[9] = acidic pH 3.47 to 3.54, air 2.5 L/min, 50 min
[10] = acidic pH 3.47 to 3.54, air 2.5 L/min, 60 min
[11] = acidic pH 3.47 to 3.54, no air, 10 min
[12] = acidic pH 3.47 to 3.54, no air, 20 min
[13] = acidic pH 3.47 to 3.54, no air, 30 min
[14] = acidic pH 3.47 to 3.54, no air, 40 min
[15] = acidic pH 3.47 to 3.54, no air, 50 min
[16] = acidic pH 3.47 to 3.54, no air, 60 min

## OO [Example H2O2, hydrogen peroxide]
[1]; air 2.5 L/min, 10 min
  Mean log10 reduction in CFU/ml: 0.36 (0.13) log10 CFU/ml
[1]; air 2.5 L/min, 20 min
  Mean log10 reduction in CFU/ml: 0.53 (0.10) log10 CFU/ml
[1]; air 2.5 L/min, 30 min
  Mean log10 reduction in CFU/ml: 0.55 (0.18) log10 CFU/ml
[1]; air 2.5 L/min, 40 min
  Mean log10 reduction in CFU/ml: 0.59 (0) log10 CFU/ml
[1]; air 2.5 L/min, 50 min
  Mean log10 reduction in CFU/ml: 0.72 (0.07) log10 CFU/ml
[1]; [3]
  Mean log10 reduction in CFU/ml: 0.72 log10 CFU/ml
[1]; air 2.5 L/min, 60 min
  Mean log10 reduction in CFU/ml: 0.50 (0.09) log10 CFU/ml
[1]; air 2.5 L/min, 60 min, listed as hydrogen peroxide
  Mean log10 reduction in CFU/ml: 0.5 log10 CFU/ml
[1]; no air, 10 min
  Mean log10 reduction in CFU/ml: 0.52 (0.12) log10 CFU/ml
[1]; no air, 20 min
  Mean log10 reduction in CFU/ml: 0.81 (0.24) log10 CFU/ml
[1]; no air, 30 min
  Mean log10 reduction in CFU/ml: 0.88 (0.25) log10 CFU/ml
[1]; no air, 40 min
  Mean log10 reduction in CFU/ml: 0.86 (0.32) log10 CFU/ml
[1]; no air, 50 min
  Mean log10 reduction in CFU/ml: 0.87 (0.28) log10 CFU/ml
[1]; no air, 60 min
  Mean log10 reduction in CFU/ml: 0.97 (0.22) log10 CFU/ml
[1]; [4]
  Mean log10 reduction in CFU/ml: 0.97 log10 CFU/ml
[1]; not buffered, air, 10 min
  log reduction: 1.80 log
[1]; not buffered, air, 20 min
  log reduction: 2.42 log
[1]; not buffered, air, 60 min
  log reduction: 3.61 log
[1]; not buffered, no air, 10 min
  log reduction: 2.51 log
[1]; not buffered, no air, 40 min
  log reduction: 4.15 log
[1]; not buffered, no air, 60 min
  log reduction: 4.45 log
[1]; [5]
  Mean log10 reduction in CFU/ml: 2.53 log10 CFU/ml
[1]; [6]
  Mean log10 reduction in CFU/ml: 3.41 log10 CFU/ml
[1]; [7]
  Mean log10 reduction in CFU/ml: 4.25 log10 CFU/ml
[1]; [8]
  Mean log10 reduction in CFU/ml: ≧4.81 log10 CFU/ml
[1]; [9]
  Mean log10 reduction in CFU/ml: ≧5.34 log10 CFU/ml
[1]; acidic pH 3.47 to 3.54, air 2.5 L/min, 50 min, listed as hydrogen peroxide
  Mean log10 reduction in CFU/ml: greater than 5 log10 CFU/ml
[1]; [10]
  Mean log10 reduction in CFU/ml: ≧5.34 log10 CFU/ml
[1]; [11]
  Mean log10 reduction in CFU/ml: 2.30 log10 CFU/ml
[1]; [12]
  Mean log10 reduction in CFU/ml: 2.76 log10 CFU/ml
[1]; [13]
  Mean log10 reduction in CFU/ml: 3.71 log10 CFU/ml
[1]; [14]
  Mean log10 reduction in CFU/ml: 3.88 log10 CFU/ml
[1]; [15]
  Mean log10 reduction in CFU/ml: 4.52 log10 CFU/ml
[1]; [16]
  Mean log10 reduction in CFU/ml: 4.83 log10 CFU/ml
[1]; room temperature, not buffered, air 2.5 L/min, 10 min
  Mean log10 reduction in CFU/ml: 0.49 log10 CFU/ml
[1]; room temperature, not buffered, air 2.5 L/min, 20 min
  Mean log10 reduction in CFU/ml: 0.70 log10 CFU/ml
[1]; room temperature, not buffered, air 2.5 L/min, 30 min
  Mean log10 reduction in CFU/ml: 0.70 log10 CFU/ml
[1]; room temperature, not buffered, air 2.5 L/min, 40 min
  Mean log10 reduction in CFU/ml: 0.80 log10 CFU/ml
[1]; room temperature, not buffered, air 2.5 L/min, 50 min
  Mean log10 reduction in CFU/ml: 0.81 log10 CFU/ml
[1]; room temperature, not buffered, air 2.5 L/min, 60 min
  Mean log10 reduction in CFU/ml: 0.63 log10 CFU/ml
[1]; room temperature, not buffered, no air, 10 min
  Mean log10 reduction in CFU/ml: 0.58 log10 CFU/ml
[1]; room temperature, not buffered, no air, 20 min
  Mean log10 reduction in CFU/ml: 1.00 log10 CFU/ml
[1]; room temperature, not buffered, no air, 30 min
  Mean log10 reduction in CFU/ml: 1.00 log10 CFU/ml
[1]; room temperature, not buffered, no air, 40 min
  Mean log10 reduction in CFU/ml: 1.00 log10 CFU/ml
[1]; room temperature, not buffered, no air, 50 min
  Mean log10 reduction in CFU/ml: 1.02 log10 CFU/ml
[1]; room temperature, not buffered, no air, 60 min
  Mean log10 reduction in CFU/ml: 1.12 log10 CFU/ml
[2]; air 2.5 L/min, 10 min
  Mean log10 reduction in CFU/ml: 1.33 (0.27) log10 CFU/ml
[2]; air 2.5 L/min, 20 min
  Mean log10 reduction in CFU/ml: 2.68 (0.22) log10 CFU/ml
[2]; air 2.5 L/min, 30 min
  Mean log10 reduction in CFU/ml: 3.98 (0.28) log10 CFU/ml
[2]; air 2.5 L/min, 40 min
  Mean log10 reduction in CFU/ml: 4.79 (0.43) log10 CFU/ml
[2]; air 2.5 L/min, 50 min
  Mean log10 reduction in CFU/ml: >5.58 (0) log10 CFU/ml
[2]; [3]
  Mean log10 reduction in CFU/ml: greater than 5 log10 CFU/ml
[2]; air 2.5 L/min, 60 min
  Mean log10 reduction in CFU/ml: >5.58 (0) log10 CFU/ml
[2]; no air, 10 min
  Mean log10 reduction in CFU/ml: 1.01 (0.36) log10 CFU/ml
[2]; no air, 20 min
  Mean log10 reduction in CFU/ml: 2.20 (0.42) log10 CFU/ml
[2]; no air, 30 min
  Mean log10 reduction in CFU/ml: 2.67 (0.52) log10 CFU/ml
[2]; no air, 40 min
  Mean log10 reduction in CFU/ml: 3.52 (0.57) log10 CFU/ml
[2]; no air, 50 min
  Mean log10 reduction in CFU/ml: 4.21 (0.19) log10 CFU/ml
[2]; no air, 60 min
  Mean log10 reduction in CFU/ml: 4.76 (0.39) log10 CFU/ml
[2]; [4]
  Mean log10 reduction in CFU/ml: 4.76 log10 CFU/ml
[2]; [5]
  Mean log10 reduction in CFU/ml: 2.16 log10 CFU/ml
[2]; [6]
  Mean log10 reduction in CFU/ml: 3.35 log10 CFU/ml
[2]; [7]
  Mean log10 reduction in CFU/ml: 4.46 log10 CFU/ml
[2]; [8]
  Mean log10 reduction in CFU/ml: ≧5.46 log10 CFU/ml
[2]; acidic pH 3.47 to 3.54, air 2.5 L/min, 40 min, listed as hydrogen peroxide
  Mean log10 reduction in CFU/ml: greater than 5 log10 CFU/ml
[2]; [9]
  Mean log10 reduction in CFU/ml: >5.46 log10 CFU/ml
[2]; [10]
  Mean log10 reduction in CFU/ml: >5.46 log10 CFU/ml
[2]; [11]
  Mean log10 reduction in CFU/ml: 2.43 log10 CFU/ml
[2]; [12]
  Mean log10 reduction in CFU/ml: 3.40 log10 CFU/ml
[2]; [13]
  Mean log10 reduction in CFU/ml: 4.21 log10 CFU/ml
[2]; [14]
  Mean log10 reduction in CFU/ml: ≧5.11 log10 CFU/ml
[2]; acidic pH 3.47 to 3.54, no air, 40 min, listed as hydrogen peroxide
  Mean log10 reduction in CFU/ml: greater than 5 log10 CFU/ml
[2]; [15]
  Mean log10 reduction in CFU/ml: ≧5.30 log10 CFU/ml
[2]; [16]
  Mean log10 reduction in CFU/ml: >5.46 log10 CFU/ml
